Each structure is given as a SMILES string. Counter-ions that a name gives are not always drawn.

The subject of test [1] is isolated rat hepatocytes. The test is described as follows: Hepatic production of glucose, 3 h incubation. Format: cell-based, Wistar rat. The settings on record: for activity at 50 µM / activity at 100 µM: Hepatocyte, rat hepatocytes; for activity at 50 µM: read-out: HGP % of ctrl @ 50 μM; for activity at 100 µM: read-out: HGP % of ctrl @ 100 μM. As for the experimental part: The hepatocytes are isolated from Wistar rat liver having fasted for 24 h after perfusion of collagenase in the portal vein. 1) The freshly isolated hepatocytes are sown in 6-well plates coated with collagen and containing an adhesion medium (Williams Medium). After adhesion, the medium is replaced with RPMI 1640 medium without any glucose, containing hydrocortisone (7·10^−5M) for a duration from 16 to 18 h. The next day, the glucose hepatic production test is conducted in a Krebs medium for 3 h. The basal conditions are cells incubated with only Krebs, the stimulated conditions are the cells placed in Krebs+lactate+pyruvate, the produced conditions are the cells exposed to chemical compounds in a Krebs/lactate/pyruvate medium. In the case when the compounds are dissolved in DMSO, all the conditions of the tests are met in the presence of a final concentration of 0.1% DMSO. The positive control of the test is the mercaptopicolinate known for its inhibitory action on hepatic production of glucose via the phosphoenolpyruvate carboxykinase. For short term treatments, the compounds are incubated for 3 h. For long term treatments, the compounds are incubated for 20 h at the moment when the hepatocytes are cultivated in RPMI and then added during the hepatic production test for 3 h. At the end of the 3 hours of incubation, the supernatant is recovered for measurement of glucose with a colorimetric method using glucose oxidase. The cells are lysed with a 0.1% NaOH aqueous solution in order to measure the amount of protein with the Lowry method. The results are expressed in mmol of glucose per mg of protein.

In test [2] the test system is INS-1 cells. The test is described as follows: Stimulation test of insulin secretion by INS-1 cells. Format: cell-based. Particulars: Rattus norvegicus, INS1, 1 h, insulin secretion by INS-1 cells in response to glucose; for insulin secretion, % of control at 10 µM: read-out: HGP % of ctrl @ 10 μM; for insulin secretion, % of control at 50 µM: read-out: HGP % of ctrl @ 50 μM. As to the method: The different compounds were tested on an INS-1 beta-pancreatic line in order to evaluate their capability of potentializing the insulin secretion in response to glucose. Very briefly, the cells are cultivated in a culture medium, RPMI 1640 with 10 mM glucose containing 1 mM of sodium pyruvate, 50 μM of 2-mercaptoethanol, 2 mM of glutamine, 10 mM of HEPES, 100 IU/ml of penicillin, 100 μg/ml of streptomycin and 10% of inactivated fetal calf serum, as described by Asfari et al.. For the insulin secretion test, the INS-1 cells are sown and cultivated in 96-well plates. After 3 days of cultivation at 37° C. in a humid atmosphere (95% air/5% CO2), the medium is removed and the cells are incubated for 16 h in a medium containing 5 mM of glucose and 1% of inactivated fetal calf serum. On the day of the test, the cells are washed with a Krebs buffer (pH 7.4) containing 0.1% of bovine albumin and then pre-incubated for 30 min at 37° C. in this same buffer containing 2.8 mM of glucose. Finally, the cells are again washed with Krebs buffer and then incubated for 1 h in the buffer of the secretion test (Krebs, pH 7.4 containing 0.1% of bovine albumin and 3.5 mM of glucose and molecules to be evaluated). At the end of the test, the cell supernatant is recovered in order to measure therein the secreted insulin, by means of an ELISA kit using a rat anti-insulin antibody (ELISA Alpco Cat no. 80-INSRTH-E10). Each condition is tested in triplicate. The 3.5 mM glucose, the 10^−7M GLP-1 and the Forskoline 10^−7/IBMX 10^−5M mixtures are used as positive controls of the test. A compound stimulates the secretion of insulin if this factor is greater than or equal to 130% of the control for a given glucose dose.

As for `CCOC(=O)CSCc1nc2ccc(Cl)cn2c1C#Cc1cccc(C(F)(F)F)c1` [Derivative 111, ethyl 2-[[6-chloro-3-[2-[3-(trifluoro-methyl)phenyl]ethynyl]imidazo [1,2-a]pyridin-2-yl]methylsulfanyl]acetate], in test [1], the activity at 50 µM is 73% and the activity at 100 µM was determined as 27%. In test [1] (dose of 100 μM), the “inhibition of hepatic production of glucose” value (“inhibition” for short) is on record as “strongest inhibitions”. In test [2], the insulin secretion, % of control at 10 µM is 136% and the insulin secretion, % of control at 50 µM came to 173%.
With `O=C(O)c1ccccc1OCc1nc2ccccn2c1C#Cc1ccc(F)cc1` [Derivative 88, 2-((3-((4-fluorophenyl)ethynyl)-imidazo[1,2-a]pyridin-2-yl)methoxy)benzoic acid], in test [1], the activity at 50 µM is 67% and the activity at 100 µM is 50%. The “inhibition” value in test [1] (dose of 100 μM) is “strongest inhibitions”. Also, in test [2], the insulin secretion, % of control at 10 µM came out at 138% and the insulin secretion, % of control at 50 µM is 263%.
As to `COC(=O)CN(C)Cc1nc2ccccn2c1C#Cc1cccc(C(F)(F)F)c1` [Derivative 72, methyl 2-(methyl((3-((3-(trifluoromethyl)-phenyl)ethynyl)-imidazo[1,2-a]pyridin-2-yl)methyl)amino)acetate], in test [2], the insulin secretion, % of control at 10 µM came out at 172% and the insulin secretion, % of control at 50 µM was determined as 151%.
With `CCOC(=O)COCc1nc2ccccn2c1C#Cc1ccc([N+](=O)[O-])cc1` [Derivative 5, ethyl 2-((3-((4-nitrophenyl)-ethynyl)imidazo[1,2-a]pyridin-2-yl)methoxy)acetate], in test [2], the insulin secretion, % of control at 10 µM is 180% and the insulin secretion, % of control at 50 µM came out at 195%.
On to `CCOC(=O)COCc1nc2ccccn2c1C#Cc1ccccc1C(F)(F)F` [Derivative 26, ethyl 2-((3-((2-(trifluoromethyl)-phenyl)ethynyl)imidazo[1,2-a]pyridin-2-yl)methoxy)acetate], for which, in test [1], the activity at 50 µM turned out to be 78% and the activity at 100 µM was 67%. For the same molecule, in test [2], the insulin secretion, % of control at 10 µM is 138% and the insulin secretion, % of control at 50 µM stood at 246%.
In the case of `COC(=O)c1cccc(OCc2nc3ccccn3c2C#Cc2cccc(C(F)(F)F)c2)c1` [Derivative 81, methyl 3-((3-((3-(trifluoromethyl)-phenyl)ethynyl)imidazo[1,2-a]pyridin-2-yl)methoxy)benzoate], in test [1], the activity at 50 µM came out at 76% and the activity at 100 µM was 47%. For the same molecule, in test [1] (dose of 100 μM), the “inhibition” value was “strongest inhibitions”. In test [2], the insulin secretion, % of control at 10 µM was 142% and the insulin secretion, % of control at 50 µM came out at 134%.
For `CCOC(=O)COCc1nc2ccccn2c1C#Cc1cccc(C#N)c1` [Derivative 14, ethyl 2-((3-((3-cyanophenyl)-ethynyl)imidazo[1,2-a]pyridin-2-yl)methoxy)acetate], in test [1], the activity at 50 µM came to 86% and the activity at 100 µM amounted to 73%. In addition, in test [2], the insulin secretion, % of control at 10 µM came to 100% and the insulin secretion, % of control at 50 µM came out at 242%.
For `CCOC(=O)COCc1nc2ccccn2c1C#Cc1ccc(C)cc1` [Derivative 2, ethyl 2-((3-(p-tolylethynyl)-imidazo[1,2-a]pyridin-2-yl)-methoxy)acetate], in test [2], the insulin secretion, % of control at 10 µM was 127% and the insulin secretion, % of control at 50 µM came to 333%.
For the molecule `O=C([O-])c1ccccc1OCc1nc2ccccn2c1C#Cc1ccccc1.[Na+]` [Derivative 92, sodium 2-((3-(phenylethynyl)imidazo-[1,2-a]pyridin-2-yl)methoxy)-benzoate], in test [1], the activity at 50 µM was 58% and the activity at 100 µM is 39%. Besides, the “inhibition” value in test [1] (with two doses) is “strongest inhibitions”. For the same molecule, in test [2], the insulin secretion, % of control at 10 µM is 135% and the insulin secretion, % of control at 50 µM amounted to 211%.
In the case of `COC(=O)c1cccc(OCc2nc3ccccn3c2C#Cc2ccccc2)c1` [Derivative 87, methyl 3-((3-(phenylethynyl)-imidazo[1,2-a]pyridin-2-yl)methoxy)benzoate], in test [1], the activity at 50 µM is 43% and the activity at 100 µM came to 25%. Moreover, the “inhibition” value in test [1] (with two doses) is “strongest inhibitions”. Besides, in test [2], the insulin secretion, % of control at 10 µM amounted to 182% and the insulin secretion, % of control at 50 µM was determined as 167%.
As to `COc1cccn2c(C#Cc3cccc(C(F)(F)F)c3)c(CSCCO)nc12` [Derivative 130, 2-[[8-methoxy-3-[2-[3-(trifluoromethyl)phenyl]ethynyl]imidazo[1,2-a]pyridin-2-yl]methylsulfanyl]ethanol], in test [2], the insulin secretion, % of control at 10 µM is 150% and the insulin secretion, % of control at 50 µM amounted to 114%.
For the molecule `CCOC(=O)CN(C)Cc1nc2ccccn2c1C#Cc1cccc(C(F)(F)F)c1` [Derivative 101, ethyl 2-[methyl-[[3-[2-[3-(trifluoromethyl)phenyl]ethynyl]imidazo[1,2-a]pyridin-2-yl]-methyl]amino]acetate hydrochloride], in test [2], the insulin secretion, % of control at 10 µM is 163% and the insulin secretion, % of control at 50 µM is 111%.
`CC(C)(CO)C(OCc1nc2ccccn2c1C#Cc1cccc(C(F)(F)F)c1)C(=O)O` (centres unmarked) [Derivative 129, 4-hydroxy-3,3-dimethyl-2-[[3-[2-[3-(trifluoromethyl)phenyl]ethynyl]imidazo[1,2-a]pyridin-2-yl]methoxy]butanoic acid]: in test [2], the insulin secretion, % of control at 10 µM came out at 109% and the insulin secretion, % of control at 50 µM is 146%.
For the molecule `CCOC(=O)COCc1nc2ccccn2c1C#Cc1ccsc1` [Derivative 9, ethyl 2-((3-(thiophen-3-ylethynyl)-imidazo[1,2-a]pyridin-2-yl)methoxy)acetate], in test [2], the insulin secretion, % of control at 10 µM worked out at 116% and the insulin secretion, % of control at 50 µM worked out at 175%.
For `O=C(O)COCc1nc2ccccn2c1C#Cc1ccc(OC(F)(F)F)c(F)c1` [Derivative 39, 2-((3-((3-fluoro-4-(trifluoro-methoxy)phenyl)ethynyl)imidazo [1,2-a]pyridin-2-yl)methoxy)acetic acid], in test [2], the insulin secretion, % of control at 10 µM came to 121% and the insulin secretion, % of control at 50 µM was found to be 137%.
In the case of `CCOC(=O)CN(C)Cc1nc2ccc(Cl)cn2c1C#Cc1cccc(C(F)(F)F)c1` [Derivative 102, ethyl 2-[[6-chloro-3-[2-[3-(trifluoromethyl)phenyl]ethynyl]imidazo[1,2-a]pyridin-2-yl]methyl-methyl-amino]acetate], in test [2], the insulin secretion, % of control at 10 µM is 176% and the insulin secretion, % of control at 50 µM came to 107%.
For `CN(C)CCNC(=O)COCc1nc2ccccn2c1C#Cc1cccc(C(F)(F)F)c1` [Derivative 55, N-(2-(dimethylamino)ethyl)-2-((3-((3-(trifluoromethyl)-phenyl)ethynyl)imidazo[1,2-a]-pyridin-2-yl)methoxy)acetamide], in test [2], the insulin secretion, % of control at 10 µM came out at 130% and the insulin secretion, % of control at 50 µM worked out at 135%.
Turning to `CCOC(=O)[C@@H](N)CSCc1nc2ccccn2c1C#Cc1cccc(C(F)(F)F)c1` [Derivative 113, ethyl (2R)-2-amino-3-[[3-[2-[3-(trifluoromethyl)phenyl]ethynyl]imidazo[1,2-a]pyridin-2-yl]methyl-sulfanyl]propanoate], in test [2], the insulin secretion, % of control at 10 µM was found to be 136% and the insulin secretion, % of control at 50 µM worked out at 112%.
Regarding `OCCSCc1nc2ccc(Cl)cn2c1C#Cc1cccc(C(F)(F)F)c1` [Derivative 131, 2-[[6-chloro-3-[2-[3-(trifluoromethyl)phenyl]ethynyl]imidazo[1,2-a]pyridin-2-yl]methylsulfanyl]ethanol], in test [2], the insulin secretion, % of control at 10 µM was 131%.
